# EPA's ToxValDB 9.5 (doi:10.2903/j.efsa.2016.4604)
# Legend:
# Folsomia candida = conditions: chronic/long-term; duration: 28 days
# Tagia sp. = conditions: for NOEC: chronic/long-term, duration: 8 weeks
# Cyprinus carpio = conditions: acute; duration: 96 hours; mortality
# Apis mellifera = conditions: acute, mortality
# Canidae = conditions: chronic; duration: 1 years; oral; diet; Dog Other; histopathology: nonneoplastic
# Daphnia magna = conditions: chronic/long-term; duration: 21 days; mobility
# Pimephales promelas = conditions: chronic/long-term; duration: 35 days; body weight
# Colinus virginianus = conditions: acute, oral, mortality
# Typhlodromus pyri = experiment: LR50; higher = less toxic; conditions: not reported; mortality
Compound,NOEC (Folsomia candida),NOEC (Tagia sp.),LC50 (Cyprinus carpio),"NOAEL (Rattus norvegicus; acute, oral, F, clinical signs)","LD50 (Rattus norvegicus; acute, oral, mortality)","NOAEL (Rattus norvegicus; chronic, duration: 2 years, oral, diet, histopathology: nonneoplastic)","NOAEL (Rattus norvegicus; reproduction developmental, M, body weight)","LD50 (Apis mellifera; duration: 48 hours, dermal)","LD50 (Apis mellifera; oral, unspecified)",NOAEL (Canidae),"LC50 (Tagia sp.; acute, duration: 14 days, mortality)",NOEC (Daphnia magna),NOEC (Pimephales promelas),LD50 (Colinus virginianus; diet),LD50 (Colinus virginianus),LR50 (Typhlodromus pyri)
Cc1nn(C)c(F)c1C(=O)Nc1ccccc1C(C)CC(C)(C)O (configuration not stated),1000 mg/kg,1000 mg/kg,> 15.7 µg/mL,,,,,,,,,,,,,
Cc1nn(C)c(F)c1C(=O)Nc1ccccc1C(C)CC(C)C (configuration not stated) [Penflufen],231 mg/kg,33 mg/kg,0.103 µg/mL,50 mg/kg-day,> 2000 mg/kg-day,4 mg/kg-day,58 mg/kg-day,> 100 µg/piece,> 105 µg/piece,7.7 mg/kg-day,> 1000 mg/kg,1.53 mg/L,23.4 µg/L,> 1700 mg/kg-day,> 4000 mg/kg-day,> 250 g/ha
CC(=O)c1ccccc1NC(=O)c1c(C)nn(C)c1F,1000 mg/kg,500 mg/kg,> 0.799 µg/mL,,,,,,,,,,,,,
